Laboratory results reported in patent US4777269A, “7-Phenylacetic acid-4-alkyl-coumarinyl amides useful in fluorometric determination of the activity of hydrolases” (European Atomic Energy Community, priority 1986, dated 1988).
≈ marks a conversion by molar mass, not a printed value. Read-outs that look alike come from different tables or passages of the source.

Legend:
penicillin G-acylase = penicillin G-acylase (Escherichia coli, UniProt P06875); assay: Kinetic study of enzymatic cleavage of the coumarinyl amides (Lineweafer-Burg-plot), fluorometric test; type: biochemical; details: enzyme concentration constant, substrate concentration varied, 50 mM K-P-buffer, 5% ethanol
Sequence of penicillin G-acylase (P06875 290-846): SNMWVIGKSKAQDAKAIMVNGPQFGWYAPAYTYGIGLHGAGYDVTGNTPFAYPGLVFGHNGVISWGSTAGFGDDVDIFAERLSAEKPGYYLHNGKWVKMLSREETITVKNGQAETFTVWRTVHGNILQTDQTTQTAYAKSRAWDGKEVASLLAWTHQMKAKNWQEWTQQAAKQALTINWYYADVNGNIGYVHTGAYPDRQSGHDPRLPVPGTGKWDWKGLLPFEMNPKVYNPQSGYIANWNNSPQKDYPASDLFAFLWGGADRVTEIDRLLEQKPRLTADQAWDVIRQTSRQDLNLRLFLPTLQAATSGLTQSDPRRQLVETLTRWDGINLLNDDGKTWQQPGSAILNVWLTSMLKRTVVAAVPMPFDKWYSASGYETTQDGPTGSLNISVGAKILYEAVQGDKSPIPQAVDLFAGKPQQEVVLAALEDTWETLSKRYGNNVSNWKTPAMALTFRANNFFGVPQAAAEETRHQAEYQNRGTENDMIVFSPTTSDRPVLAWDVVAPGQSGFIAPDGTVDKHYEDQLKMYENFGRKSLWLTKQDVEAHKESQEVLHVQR
Sequence of penicillin G-acylase (P06875 27-235): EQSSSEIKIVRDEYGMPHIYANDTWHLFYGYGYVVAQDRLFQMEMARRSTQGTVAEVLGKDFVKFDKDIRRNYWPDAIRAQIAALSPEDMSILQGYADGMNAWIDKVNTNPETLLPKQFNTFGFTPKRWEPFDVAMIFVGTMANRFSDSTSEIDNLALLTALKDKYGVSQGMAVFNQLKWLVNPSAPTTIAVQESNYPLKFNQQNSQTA
Protocol: During the tests it has been observed repeatedly that the conversion rate of the reaction decreases at higher substrate concentrations. Therefore, research work for the determination of the kinetic parameters (Vmax and KM) of this reaction system had to be carried out.
The enzyme concentration in the test was kept constant and the substrate concentration (50 mM K-P-buffer 5% ethanol for both substrates) was varied.
The test mixture contains 3 μg/ml of the coumarinyl derivative as obtained in example 1, dissolved in 50 mM of a potassium-phosphate-buffer (pH 8, 5% ethanol).
At first a solution of the coumarinyl derivative in ethanol is prepared and diluted with the phosphate buffer according to the concentration values. 3 ml of the mixture are measured in a fluorescence cuvette in a spectral fluorometer (λ=440 nm for PMC; λ=495 nm for PFC) in regard to the background signal.
The reaction is started (while stirring) by the addition of 10 to 100 μl of the sample and followed. The activity of the enzyme can be estimated from the linear initial increase of the fluorescence/time-diagram after a corresponding calibration has been made.

[1] = Solubility of the substrates in aqueous solution / buffer; type: physicochemical
Protocol: The values for the PFC test are easily reproduceable since the solution of the substrate (5% ethanol) can be prepared more accurately. For the preparation of solutions of the substrate without ethanol about 24 hours are need to dissolve 1 mg of the substrate in 1 l of the buffer. The fluorometric test is particularly suited for the determination of low activities of penicillin G-acylase.
The yields obtained in the preparation of the 7-phenylacetic acid-4-alkyl-coumarinyl amides of the invention, in particular of PFC and PMC, were in the range of from 50 to 80% at a high product purity (NMR, IR). […] However, this problem may be overcome by dissolving the substrate at first in pure ethanol and then diluting it with the corresponding buffer to a mixture with 5% ethanol. In this manner concentrations of 6 mg/l can be achieved.

[2] = aqueous solution, aqueous solutions, without ethanol, read-out: solubility in aqueous solutions
[3] = buffer with 5% ethanol, organic solvent or mixture, buffer mixture with 5% ethanol, read-out: achievable concentration after dissolving in pure ethanol and diluting with buffer

Structure (SMILES)	kinetic behaviour at higher substrate concentrations (penicillin G-acylase)	solubility [1, 2] [µg/mL]	solubility [1, 3] [µg/mL]
Cc1cc(=O)oc2cc(NC(=O)Cc3ccccc3)ccc12 [PMC, 7-phenylacetic acid-4-methylcoumarinyl amide]	substrate inhibition	< 1	6 (≈ 20.5 µM)
O=C(Cc1ccccc1)Nc1ccc2c(C(F)(F)F)cc(=O)oc2c1 [PFC, 7-phenyl-acetic acid-4-trifluoromethyl-coumarinyl amide]	substrate inhibition	< 1	6 (≈ 17.3 µM)
